Measured values from patent US6846907B1, “Osteoporosis treatment” (Hamilton Civic Hospitals Research Centre, priority 1999, dated 2005).
“Also recorded” adds a separate entry of the source. Ends that are not written are not given here.

Assays:
[1] = system: IL-11/IL-11R interaction; assay: Inhibition of the productive interaction of IL-11 with IL-11R by IL-11 binding peptides
[2] = system: cocultures of murine bone marrow and calvaria cells; assay: TRAP assay: IL-11 induced osteoclast formation in cocultures of murine bone marrow and calvaria cells; format: cell-based; conditions: for IL-11 induced osteoclast formation (TRAP+ multinucleated cells): 20 ng/ml IL-11, 10, 100 or 1000 ng/ml test substance, 9 days, FIGS. 7A, 7B, 8, 12
Source text: Particular IL-11 antagonists useful in the treatment of IL-11 related bone density disorders may be identified using the TRAP assay and the bone nodule formation assay, discussed herein. The TRAP assay is known in the art and involves co-culturing murine calvarla (osteoblasts) and bone marrow cells in vitro and then quantifying osteoclast formation by counting the number of tartrate-resistant acid phosphatase positive (TRAP+) multinucleated cells. […] These potential IL-11 antagonists may be screened to determine if they are IL-11 antagonists by examining their activity in the TRAP assay and the bone nodule formation assay.
Post menopausal osteoporosis is characterized by a general reduction in bone mass, resulting from an imbalance between osteoblast-mediated bone formation and bone resorption by the osteoclast. While the osteoblast is responsible for the formation of new bone or osteoid, it also appears to control the activation and/or number of osteoclasts by releasing cytokines such as IL-6 or IL-11. This process can be examined using a “TRAP assay” which involves co-culturing murine calvaria (osteoblasts) and bone marrow cells in vitro and then quantifying osteoclast formation by counting the number of tartrate-resistant acid phosphatase positive (TRAP+) multinucleated cells. Ovariectomized (OVX) rats or mice provide a satisfactory animal model for postmenopausal women in studies of osteoporosis.
The effect of IL-11 on osteoclast development in cocultures of murine bone marrow and calvaria cells was examined using standard techniques. Briefly, bone marrow cultures were established by removing femurs from mice, dissecting away soft tissue, and removing the distal and proximal ends of the femur. The marrow was then flushed with 5 ml α MEM and 1.0% penicilin-streptomycin using a 25 gauge needle. The bone marrow cells were then suspended to a concentration of 5,000,000 cells per ml in α MEM containing 15% fetal calf serum (charcoal treated) to remove cells adherent to plastic. The non-adherent cells were then co cultured for an additional 9 days with murine calvaria cells prior to being fixed and stained for TRAPase activity (stains were obtained from Sigma Chemical Co., St. Louis, Mo.). TRAP+MNC's have the ability to form resorption pits in smooth cortical bone slices and are therefore considered to be of osteoclast origin.
The effect of IL-11 on osteoclast development in cocultures of murine bone marrow and calvaria cells was examined by maintaining these cultures in the presence of various specific concentrations of IL-11 for 9 days. After 9 days of culture, the cells were stained for TRAPase activity and the number of multinucleated TRAP+cells were determined. The results of this experiment are depicted in Table I. Data are expressed as mean +/−SEM. […]

[3] = system: murine calvaria cell culture; assay: Bone nodule formation assay in the presence of exogenous IL-11 and IL-11 antagonists; format: cell-based; conditions: 20 ng/ml exogenous IL-11; for reversal of the inhibitory effect of IL-11 on bone nodule formation: 21 days, FIGS. 9, 10
Experimental: Bone nodule formation was measured using standard techniques. Briefly, calvaria cell cultures were established as follows: Calvaria cells were obtained from 2 day old fetal mouse calavariae by collagenase digestion. The cells were then cultured for 21 days in the presence of 0.5 mM ascorbic acid and 10 mM β-glycerophosphate. Where indicated in the experimental descriptions below, IL-11 and the mutant IL-11 receptor of experiment 4 were added to the culture at day 0 and every 3-4 days thereafter until the removal of the medium for analysis. Bone nodule formation was quantified by counting alizarin red stain nodules under a light microscope.
The effect of a gp130 binding region mutant soluble IL-11 receptor of type described in Experiment 4 and produced by the process of Experiment 3 on bone nodule formation in the presence of 20 ng/ml of exogenous IL-11 was assessed, and the results are depicted in FIG. 9. […] Thus, IL-11 antagonists such as mutant IL-11Rs can enhance bone nodule formation.
It was desired to determine if bone nodule formation could be modulated in a manner similar to that reported in Example 6 using an IL-11 antagonist peptide such as the one used in Example 5. To achieve this, the procedure of Example 6 was repeated, with the substitution of peptide 1 for the solubilized mutant IL-11 receptor. The results of this experiment are depicted in FIG. 10.

[4] = target: Interleukin-11; assay: cell-based or functional assay
[5] = system: murine calvaria cells (primary osteoblasts); assay: Bone nodule formation assay, effect of IL-11; format: cell-based; conditions: various concentrations of IL-11; 250 μM ascorbic acid, 10 mM β-glycerol phosphate; FIG. 5
Experimental: The effect of IL-11 on bone formation was examined using the bone nodule formation assay. Murine calvaria cells (primary osteoblasts) were cultured in the presence of 250 μM ascorbic add and 10 mM β-glycerol phosphate, and in the presence of various amounts of interleukin-11. After culturing, the culture media were plated out and the number of bone nodules per plate was counted. The results are shown on the accompanying FIG. 5, where number of bone nodules per plate is plotted as the vertical axis, with the different concentrations of interleukin on the horizontal axis, not to scale. Each bar represents the result on experiments containing a different concentration of interleukin-11, as noted on FIG. 5.

In the case of RRLRASW [SEQ ID NO. 5], the “productive interaction of IL-11 with IL-11R” value (from here on “productive interaction”) [1] is reported as “capable of inhibiting the productive interaction of IL-11 and IL-11R”.

With “Thr Tyr Pro Ala Ser Trp Pro Cys Gin Pro His Phe Leu Leu Lys Phe Arg Leu Gln Tyr (TYPASWPCQPHFLLKFRLQY; listed as Homo sapiens) [peptide 2]” the “IL-11 induced osteoclast formation (TRAP+ multinucleated cells)” value (“IL-11 induced osteoclast formation” for short) [2] was “does not” and the “reversal of the inhibitory effect of IL-11 on bone nodule formation” value [3] was “unable to reduce the inhibition of nodule formation by IL-11”.

In the case of “Ser Ile Leu Arg Pro Asp Pro Pro Gin Gly Leu Arg Val Glu Ser Val Pro Gly Tyr Pro (SILRPDPPQGLRVESVPGYP; listed as Homo sapiens) [SEQ. ID. NO. 6]”, the “productive interaction” value [1] is reported as “has been found to inhibit the productive interaction between IL-11 and IL-11R”.

Work on “H289→Y289 mutant solubilized IL-11 receptor (from UniProt Q14626 24-370)” yielded a concentration allowing enhanced bone nodule formation in the presence of 20 ng/ml exogenous IL-11 [4] of 10 ng/mL.

In the case of RRLRASWTYPASWPCQPHFL [peptide 1], the “productive interaction” value [1] is reported as “binds IL-11 and prevents its productive interaction with IL-11R”, the “IL-11 induced osteoclast formation” value [2] is reported as “inhibits IL-11 induced osteoclast formation” and the “reversal of the inhibitory effect of IL-11 on bone nodule formation” value [3] is reported as “able to reduce the inhibitory effects”. The “bone nodule formation relative to control samples” value ([3]; 50 ng/ml peptide, FIG. 10) was “allowed bone nodule formation in excess of that seen in the control samples”.

B1: IL-11: cytokine interleukin-11 (protein, UniProt P20809 22-199, looked up)
Interleukin-11: PGPPPGPPRVSPDPRAELDSTVLLTRSLLADTRQLAAQLRDKFPADGDHNLDSLPTLAMSAGALGALQLPGVLTRLRADLLSYLRHVQWLRRAGGSSLKTLEPELGTLQARLDRLLRRLQLLMSRLALPQPPPDPPAPPLAPPSSAWGGIRAAHAILGGLHLTLDWAVRGLLLLKTRL
With B1 the “osteoclast formation in vitro, effect of IL-11” value ([2]; cocultures of murine calvaria and bone marrow cells) was “potent stimulator of osteoclast formation” and the “number of bone nodules per plate” value [5] was “number of bone nodules per plate decreased; also recorded: inhibits bone formation”.

B2: H289→Y289 mutant solubilized IL-11 receptor: gp130 binding region mutant (H289 to Y) recombinant soluble human IL-11 receptor of Example 3 (protein)
chain: SPCPQAWGPPGVQYGQPGRSVKLCCPGVTAGDPVSWFRDGEPKLLQGPDSGLGHELVLAQADSTDEGTYICQTLDGALGGTVTLQLGYPPARPVVSCQAADYENFSCTWSPSQISGLPTRYLTSYRKKTVLGADSQRRSPSTGPWPCPQDPLGAARCVVHGAEFWSQYRINVTEVNPLGASTRLLDVSLQSILRPDPPQGLRVESVPGYPRRLRASWTYPASWPCQPHFLLKFRLQYRPAQHPAWSTVEPAGLEEVITDAVAGLPYAVRVSARDFLDAGTWSTWSPEAWGTPSTGTIPKEIPAWGQLHTQPEVEPQVDSPAPPRPSLQPHPRLLDHRDSVEQVAVLA
modifications: left off: small tags and cut ends
In the case of B2, the “IL-11 induced osteoclast formation” value [2] is reported as “capable of inhibiting IL-11-induced osteoclast formation”, the “bone nodule formation relative to the level in the absence of exogenous IL-11” value ([3]; 10 ng/ml mutant receptor, FIG. 9) is reported as “enhanced bone nodule formation” and the “reversal of the inhibitory effect of IL-11 on bone nodule formation” value [3] is reported as “can reverse the effect of exogenous IL-11”.
